Reference: US11535872B2, “Microbial strains and uses thereof” (priority 2017, dated 2022)
Like-named read-outs stand apart in the source and are kept apart here.

Key:
Format in all cases: cell-based, Candida tropicalis
ΔΔXyl2 [1] = settings: WSH; for starting xylose converted by ΔΔXyl2 with co-substrate: maltose value by 72 hr
ΔΔXyl2 [2] = settings: YNB media; for starting xylose attenuated/bioconverted by ΔΔXyl2 with co-substrate: binary mixture of xylose and co-substrate
Y6604 (NCYC 4190) = assay: Xylose utilisation of Y6604 in the presence of increased inhibitor concentrations; settings: high or increasing inhibitor concentrations, minimal media, shake flasks
Method: FIG. 4 show graphs illustrating xylose utilisation profiles of Y6604 (NCYC 4190) in the presence of increased inhibitor concentrations. Graphs A, B, C, D, E and F represent strain performance in the presence of increasing concentrations of vanillin (VAN), transcinnamic acid (TRANSC), hydroxyl-benzaldehyde (HBA), syringaldehyde (S), furfural (F) and hydroxyl-methyl furfural (HMF) respectively. Indicated values in the legend represent concentrations in mg/100 mL. Xylose values are the mean of two replicates in minimal media in shake flasks;
Strain Y6604 (NCYC 4190) was compared with other xylose-utilizing isolates from the gut of click beetle to assess its inhibitor tolerance and xylose to xylitol conversion. […] Despite slower Y6604 (NCYC 4190) growth in corn stover hydrolysate, xylose consumption and subsequent xylitol production was largely unaffected when compared to other isolates (FIG. 2 A, B) and increased amounts of the sugar alcohol at a comparatively higher rate of production were apparent in hydrolysates obtained from Miscanthus (FIG. 2 C, D) and wheat straw (FIG. 2 E, F). Phylogenetic analysis of the D1/D2 domain confirmed strain identity to be Candida tropiclis (FIG. 3). Having observed the enhanced efficacy of Y6604 (NCYC 4190) in hydrolysates with high inhibitor loadings, the isolate's tolerance threshold to common inhibitors by measuring xylose uptake rates (FIG. 4) was then assessed.

Compound: OC[C@H]1O[C@H](O[C@H]2[C@H](O)[C@@H](O)C(O)O[C@@H]2CO)[C@H](O)[C@@H](O)[C@@H]1O (mixture of isomers) [maltose]
- rate of xylose conversion by ΔΔXyl2 with co-substrate (ΔΔXyl2 [1]): 0.78 g/h
- starting xylose converted by ΔΔXyl2 with co-substrate (ΔΔXyl2 [1]): more than 95%
- rate of xylose conversion by ΔΔXyl2 with co-substrate (ΔΔXyl2 [2]): 0.5 g xylose per hr
- starting xylose attenuated/bioconverted by ΔΔXyl2 with co-substrate (ΔΔXyl2 [2]): 70%

Compound: O=Cc1ccc(CO)o1 [HMF, hydroxyl-methyl furfural]
- effect on xylose utilisation/uptake (Y6604 (NCYC 4190)): enhance pentose uptake

Compound: O=C(CO)[C@@H](O)[C@H](O)[C@H](O)CO [fructose]
- rate of xylose conversion by ΔΔXyl2 with co-substrate (ΔΔXyl2 [2]): around 0.4 g xylose per hr
- starting xylose attenuated/bioconverted by ΔΔXyl2 with co-substrate (ΔΔXyl2 [2]): 54%

Compound: O=Cc1ccco1 [furfural]
- effect on xylose utilisation/uptake (Y6604 (NCYC 4190)): completely abolished xylose uptake

Compound: O=C[C@H](O)[C@@H](O)[C@@H](O)[C@H](O)CO [galactose]
- rate of xylose conversion by ΔΔXyl2 with co-substrate (ΔΔXyl2 [1]): 0.5 g/h
- time to complete co-substrate exhaustion (ΔΔXyl2 [1]): ≤ 7 h
- arabitol accumulation with co-substrate (ΔΔXyl2 [1]; compared to other potential co-substrates (FIG. 7G)): high amount of arabitol accumulation
- starting xylose converted by ΔΔXyl2 with co-substrate (ΔΔXyl2 [1]): more than 90%
- starting xylose attenuated/bioconverted by ΔΔXyl2 with co-substrate (ΔΔXyl2 [2]): 34%

Compound: OCC(O)CO [glycerol]
- starting xylose converted by ΔΔXyl2 with co-substrate (ΔΔXyl2 [1]): around 94%
- rate of xylose conversion by ΔΔXyl2 with co-substrate (ΔΔXyl2 [2]): around 0.4 g xylose per hr

Compound: COc1cc(C=O)cc(OC)c1O [syringaldehyde]
- effect on xylose utilisation/uptake (Y6604 (NCYC 4190)): delayed xylose utilisation

Compound: O=C(O)/C=C/c1ccccc1 [transcinnamic acid]
- effect on xylose utilisation/uptake (Y6604 (NCYC 4190)): delayed xylose utilisation

Compound: COc1cc(C=O)ccc1O [vanillin]
- effect on xylose utilisation/uptake (Y6604 (NCYC 4190)): delayed xylose utilisation

Compound: hydroxyl-benzaldehyde
- effect on xylose utilisation/uptake (Y6604 (NCYC 4190)): delayed xylose utilisation
